In patent US20100297692A1, “REACTION MEDIUM FOR DETECTING AND/OR IDENTTIFYING STAPHYLOCCOUS AUREUS” (BIOMERIEUX, priority 2007, published 2010):
Each block holds one compound with its values, some of them ahead of it.

Key:
S. aureus (MSSA) = test: β-D-ribosidase substrates in Columbia agar, colored or fluorescent colonies; type: cell-based, Staphylococcus aureus
Procedure: (§1) The media hereinafter were prepared in 200 ml of a Columbia agar base (Oxoid), in combination with the chromogenic β-D-ribosidase substrates. The various substrates and also the concentrations and the additives used in the media are described in Table 1 below:
(§2) The β-D-ribosidase substrates are solubilized in DMSO and added to the media so as to obtain the concentrations indicated in Table 1.
(§3) 191 bacterial strains were inoculated onto each of the media using a suspension at 0.5 MacFarland diluted to 1/1000. The dishes were incubated at 37° C. and then read.
(§4) The media were distributed into Petri dishes, then inoculated with approximately 100 000 CFU, then incubated at 37° C. for 48 h. The colonies formed were examined visually after incubation times of 18, 24 and 48 hours.
(§5) The stock collection of 191 strains comprised: […], 48 Staphylococcus spp, 61 Enterococcus spp and 3 alpha-hemolytic Streptococcus.

S. aureus (MRSA) = test: as above; type: cell-based, Staphylococcus aureus
Procedure: as §1, §2, §3, §4, §5

Enterococci = test: as above; type: cell-based, Enterococcus spp
Procedure: as §1, §2, §3, §4, §5

S aureus (MRSA and MSSA) = test: Catechol-β-D-riboside and X-β-D-riboside on a broad panel of Staphylococcus spp; type: cell-based
Procedure: (§6) Catechol-β-D-riboside: A GTS medium (bioMérieux) supplemented with 300 mg/l of catechol-β-D-riboside, then autoclaved, and with 500 mg/l of ammoniacal iron citrate was used and distributed into Petri dishes 55 mm in diameter.
(§7) X-β-D-riboside: A modified Chapman medium, without NaCl, autoclaved and supplemented with 60 mg/l of X-β-D-riboside, was used and distributed into Petri dishes 55 mm in diameter.
For the two media, the inoculation was carried out using precultures prepared for 24 h at 37° C. A suspension in physiological saline at 0.5 McF was prepared and then each strain was inoculated onto a dish using a 10 μl calibrated loop. […]
(§8) In total, […] were tested: 34 S. aureus, including 25 MRSAs, and 46 other species of Staphylococcus (including S. schleiferi; S. capitis; S. hyicus; S. intermedius; S. haemolyticus; S. auricularis; S. hominis; S. warneri; S. chromogenes; S. cohnii; S. epidermidis; S. sciuri; S. xylosus; S. saprophyticus).

Micrococcus luteus = test: β-D-ribosidase substrates in Columbia agar, colored or fluorescent colonies; type: cell-based
Procedure: [The procedure below names another organism; the source lists this organism under the same test.] as §1, §2, §3, §4, §5

[1] = tested on: Coagulase-negative Staphylococci; test: as above; type: cell-based, Staphylococcus spp; conditions: for % of strains producing colored or fluorescent colonies: Coagulase-negative Staphylococci
Procedure: as §1, §2, §3, §4, §5

[2] = tested on: Alpha-hemolytic streptococci; test: as above; type: cell-based, alpha-hemolytic Streptococcus
Procedure: as §1, §2, §3, §4, §5

Coag neg = test: Catechol-β-D-riboside and X-β-D-riboside on a broad panel of Staphylococcus spp; type: cell-based
Procedure: as §6, §7
For the two media, the inoculation was carried out using precultures prepared for 24 h at 37° C. A suspension in physiological saline at 0.5 McF was prepared and then each strain was inoculated onto a dish using a 10 μl calibrated loop.
(§9) The readings were carried out after 24 and 48 hours of incubation at 37° C.
as §8

[3] = tested on: S. aureus (MRSA and MSSA); test: Catechol-β-D-riboside in a liquid medium, coloration; type: cell-based, Staphylococcus aureus
Procedure: (§10) The medium hereinafter had the same composition as a chromID S. aureus base (bioMérieux), with no selective agents nor agar, so as to obtain a liquid medium. The substrates and inducers were replaced, before autoclaving, with […] of catechol-β-D-riboside, solubilized in DMSO, and with ammoniacal iron citrate at 500 mg/l. The medium was then distributed into tubes in a proportion of 1.5 ml/tube.
For this medium, the inoculation was carried out using precultures prepared for 24 h at 37° C. A suspension of physiological saline at 0.5 McF was prepared and then each tube was inoculated with 10 μl of bacterial suspension. […]
(§11) In total, 11 staphylococcus strains were tested; 5 S. aureus and 6 of other species of the Staphylococcus genus (coagulase-negative).

Coagulase-negative = test: as above; type: cell-based
Procedure: as §10
For this medium, the inoculation was carried out using precultures prepared for 24 h at 37° C. A suspension of physiological saline at 0.5 McF was prepared and then each tube was inoculated with 10 μl of bacterial suspension.
as §9, §11

[4] = modified Chapman medium without NaCl, 60 mg/l substrate
[5] = 400 mg/L + ammoniacal iron citrate 100 mg/l, 18 h
[6] = 400 mg/L + ammoniacal iron citrate 100 mg/l, 24 h
[7] = 400 mg/L + ammoniacal iron citrate 100 mg/l, 48 h
[8] = GTS medium, 300 mg/l substrate, 500 mg/l ammoniacal iron citrate

Compound: 5-Bromo-4-chloro-3-indoxyl-beta-D-riboside [X-β-riboside]
% of strains producing colored or fluorescent colonies (S. aureus (MSSA); 80 mg/L, 18 h): 64% | % of strains producing colored or fluorescent colonies (S. aureus (MSSA); 80 mg/L, 24 h): 100% | % of strains producing colored or fluorescent colonies (S. aureus (MSSA); 80 mg/L, 48 h): 100% | % of strains producing colored or fluorescent colonies (S. aureus (MSSA); 200 mg/L, 18 h): 64% | % of strains producing colored or fluorescent colonies (S. aureus (MSSA); 200 mg/L, 24 h): 64% | % of strains producing colored or fluorescent colonies (S. aureus (MSSA); 200 mg/L, 48 h): 100% | % of strains producing colored or fluorescent colonies (S. aureus (MRSA); 80 mg/L, 18 h): 84% | % of strains producing colored or fluorescent colonies (S. aureus (MRSA); 80 mg/L, 24 h): 92% | % of strains producing colored or fluorescent colonies (S. aureus (MRSA); 80 mg/L, 48 h): 97% | % of strains producing colored or fluorescent colonies (S. aureus (MRSA); 200 mg/L, 18 h): 82% | % of strains producing colored or fluorescent colonies (S. aureus (MRSA); 200 mg/L, 24 h): 87% | % of strains producing colored or fluorescent colonies (S. aureus (MRSA); 200 mg/L, 48 h): 95% | % of strains producing colored or fluorescent colonies (Enterococci; 80 mg/L, 18 h): 2% | % of strains producing colored or fluorescent colonies (Enterococci; 80 mg/L, 24 h): 2% | % of strains producing colored or fluorescent colonies (Enterococci; 80 mg/L, 48 h): 2% | % of strains producing colored or fluorescent colonies (Enterococci; 200 mg/L, 18 h): 2% | % of strains producing colored or fluorescent colonies (Enterococci; 200 mg/L, 24 h): 2% | % of strains producing colored or fluorescent colonies (Enterococci; 200 mg/L, 48 h): 2% | Number of strains producing a coloration/total number of strains, positive at 18 h (S aureus (MRSA and MSSA); [4]): 17/34 | Number of strains producing a coloration/total number of strains, positive at 24 h (S aureus (MRSA and MSSA); [4]): 29/34 | Number of strains producing a coloration/total number of strains, positive at 48 h (S aureus (MRSA and MSSA); [4]): 33/34 | % of strains producing colored or fluorescent colonies (Micrococcus luteus; 80 mg/L, 18 h): 0% | % of strains producing colored or fluorescent colonies (Micrococcus luteus; 80 mg/L, 24 h): 0% | % of strains producing colored or fluorescent colonies (Micrococcus luteus; 80 mg/L, 48 h): 0% | % of strains producing colored or fluorescent colonies (Micrococcus luteus; 200 mg/L, 18 h): 0% | % of strains producing colored or fluorescent colonies (Micrococcus luteus; 200 mg/L, 24 h): 0% | % of strains producing colored or fluorescent colonies (Micrococcus luteus; 200 mg/L, 48 h): 0% | % of strains producing colored or fluorescent colonies ([1]; 80 mg/L, 18 h): 3% | % of strains producing colored or fluorescent colonies ([1]; 80 mg/L, 24 h): 6% | % of strains producing colored or fluorescent colonies ([1]; 80 mg/L, 48 h): 6% | % of strains producing colored or fluorescent colonies ([1]; 200 mg/L, 18 h): 3% | % of strains producing colored or fluorescent colonies ([1]; 200 mg/L, 24 h): 3% | % of strains producing colored or fluorescent colonies ([1]; 200 mg/L, 48 h): 3% | false positives among the coagulase-negative staphylococci ([1]; Columbia agar, 24 h of incubation, concentration not given): 3% | % of strains producing colored or fluorescent colonies ([2]; 80 mg/L, 18 h): 0% | % of strains producing colored or fluorescent colonies ([2]; 80 mg/L, 24 h): 0% | % of strains producing colored or fluorescent colonies ([2]; 80 mg/L, 48 h): 0% | % of strains producing colored or fluorescent colonies ([2]; 200 mg/L, 18 h): 0% | % of strains producing colored or fluorescent colonies ([2]; 200 mg/L, 24 h): 0% | % of strains producing colored or fluorescent colonies ([2]; 200 mg/L, 48 h): 0% | Number of strains producing a coloration/total number of strains, positive at 18 h (Coag neg; [4]): 7/46 | Number of strains producing a coloration/total number of strains, positive at 24 h (Coag neg; [4]): 12/46 | Number of strains producing a coloration/total number of strains, positive at 48 h (Coag neg; [4]): 14/46

% of strains producing colored or fluorescent colonies (S. aureus (MSSA); [5]): 100% | % of strains producing colored or fluorescent colonies (S. aureus (MSSA); [6]): 100% | % of strains producing colored or fluorescent colonies (S. aureus (MSSA); [7]): 100% | % of strains producing colored or fluorescent colonies (S. aureus (MRSA); [5]): 100% | % of strains producing colored or fluorescent colonies (S. aureus (MRSA); [6]): 100% | % of strains producing colored or fluorescent colonies (S. aureus (MRSA); [7]): 100% | % of strains producing colored or fluorescent colonies (Enterococci; [5]): 2% | % of strains producing colored or fluorescent colonies (Enterococci; [6]): 2% | % of strains producing colored or fluorescent colonies (Enterococci; [7]): 2% | % of strains producing colored or fluorescent colonies (Micrococcus luteus; [5]): 0% | % of strains producing colored or fluorescent colonies (Micrococcus luteus; [6]): 0% | % of strains producing colored or fluorescent colonies (Micrococcus luteus; [7]): 0% | Number of strains producing a coloration, Positive at 18 h (Coagulase-negative; 300 ml/g catechol-β-D-riboside, ammoniacal iron citrate 500 mg/l, coagulase-negative, 18 h): 0/6 | Number of strains producing a coloration, Positive at 24 h (Coagulase-negative; 300 ml/g catechol-β-D-riboside, ammoniacal iron citrate 500 mg/l, coagulase-negative, 24 h): 0/6 | Number of strains producing a coloration, Positive at 48 h (Coagulase-negative; 300 ml/g catechol-β-D-riboside, ammoniacal iron citrate 500 mg/l, coagulase-negative, 48 h): 1/6
Compound: OC[C@H]1O[C@@H](Oc2ccccc2O)[C@H](O)[C@@H]1O [Catechol-β-riboside, 2-Hydroxyphenyl-beta-D-riboside]
Number of strains producing a coloration/total number of strains, positive at 18 h (S aureus (MRSA and MSSA); [8]): 19/34 | Number of strains producing a coloration/total number of strains, positive at 24 h (S aureus (MRSA and MSSA); [8]): 31/34 | Number of strains producing a coloration/total number of strains, positive at 48 h (S aureus (MRSA and MSSA); [8]): 34/34 | % of strains producing colored or fluorescent colonies [1, 5]: 3% | % of strains producing colored or fluorescent colonies [1, 6]: 3% | % of strains producing colored or fluorescent colonies [1, 7]: 3% | Number of strains producing a coloration, Positive at 18 h ([3]; 300 ml/g catechol-β-D-riboside, ammoniacal iron citrate 500 mg/l, S. aureus, 18 h): 5/5 | Number of strains producing a coloration, Positive at 24 h ([3]; 300 ml/g catechol-β-D-riboside, ammoniacal iron citrate 500 mg/l, S. aureus, 24 h): 5/5 | Number of strains producing a coloration, Positive at 48 h ([3]; 300 ml/g catechol-β-D-riboside, ammoniacal iron citrate 500 mg/l, S. aureus, 48 h): 5/5 | coloration for S. aureus ([3]; from 18 hours onward): 100% | detection of the other species of the Staphylococcus genus (Coagulase-negative; from 18 hours onward): none of the other species of the Staphylococcus genus were detected | % of strains producing colored or fluorescent colonies [2, 5]: 0% | % of strains producing colored or fluorescent colonies [2, 6]: 0% | % of strains producing colored or fluorescent colonies [2, 7]: 0% | Number of strains producing a coloration/total number of strains, positive at 18 h (Coag neg; [8]): 10/46 | Number of strains producing a coloration/total number of strains, positive at 24 h (Coag neg; [8]): 14/46 | Number of strains producing a coloration/total number of strains, positive at 48 h (Coag neg; [8]): 14/46
